# Tests used:
# Assay in all cases: relative viability (nuclei count vs DMSO), 5 days (fraction); higher = more cells survive
# [1] = tested on: CAL-12T
# Procedure, shortened: (§1)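 Medians of duplicate plates are given as relative viability. That measure is the nuclei count in treated wells divided by the count in vehicle wells. Counts were taken on 4× images of lung cancer cell lines in 1536-well plates, 5 days after pin-tool dosing the day after seeding with one drug alone or a fixed anchor-drug dose plus five library-drug doses (not always all listed) in √10 steps.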
# [2] = tested on: COR-L 105
# Procedure, shortened: as §1
# [3] = tested on: H3255
# Procedure, shortened: as §1
# [4] = tested on: HARA
# Procedure, shortened: as §1
# [5] = tested on: HCC-15
# Procedure, shortened: as §1
# [6] = tested on: HCC-366
# Procedure, shortened: as §1
# [7] = tested on: LC-2-ad
# Procedure, shortened: as §1
# [8] = tested on: LU99A
# Procedure, shortened: as §1
# [9] = tested on: NCI-H1395
# Procedure, shortened: as §1
# [10] = tested on: NCI-H1666
# Procedure, shortened: as §1
# [11] = tested on: NCI-H1734
# Procedure, shortened: as §1
# [12] = tested on: NCI-H1944
# Procedure, shortened: as §1
# [13] = tested on: NCI-H1975
# Procedure, shortened: as §1
# [14] = tested on: NCI-H1993
# Procedure, shortened: as §1
# [15] = tested on: NCI-H2228
# Procedure, shortened: as §1
# [16] = tested on: NCI-H3122
# Procedure, shortened: as §1
# [17] = tested on: NCI-H520
# Procedure, shortened: as §1
# [18] = tested on: NCI-H647
# Procedure, shortened: as §1
# [19] = tested on: NCI-H661
# Procedure, shortened: as §1
# [20] = tested on: NCI-H838
# Procedure, shortened: as §1
# [21] = tested on: PC-14
# Procedure, shortened: as §1
# [22] = tested on: PC-3 [JPC-3]
# Procedure, shortened: as §1
# [23] = tested on: SK-LU-1
# Procedure, shortened: as §1
smiles,measurement,setting,value
O=c1[nH]c2ccccc2n1C1CCN(CCCC(c2ccc(F)cc2)c2ccc(F)cc2)CC1 [Pimozide] + COc1cccc2cc(-c3nc([C@H]4CC[C@H](C(=O)O)CC4)n4ncnc(N)c34)[nH]c12 [OSI-027] (partner 0.5 µM),relative viability,[1]; first compound 0.08 µM,0.756
same,relative viability,[1]; first compound 0.253 µM,0.706
same,relative viability,[1]; first compound 0.8 µM,0.673
same,relative viability,[1]; first compound 2.53 µM,0.41
same,relative viability,[1]; first compound 8 µM,0.561
same,relative viability,[2]; first compound 0.253 µM,0.778
same,relative viability,[2]; first compound 0.8 µM,0.617
same,relative viability,[2]; first compound 2.53 µM,0.64
same,relative viability,[2]; first compound 8 µM,0.58
same,relative viability,[3]; first compound 0.253 µM,0.514
same,relative viability,[3]; first compound 0.8 µM,0.563
same,relative viability,[3]; first compound 2.53 µM,0.6
same,relative viability,[3]; first compound 8 µM,0.584
same,relative viability,[4]; first compound 0.253 µM,0.518
same,relative viability,[4]; first compound 0.8 µM,0.196
same,relative viability,[4]; first compound 2.53 µM,0.384
same,relative viability,[4]; first compound 8 µM,0.264
same,relative viability,[5]; first compound 0.08 µM,0.817
same,relative viability,[5]; first compound 0.253 µM,0.668
same,relative viability,[5]; first compound 0.8 µM,0.472
same,relative viability,[5]; first compound 2.53 µM,0.618
same,relative viability,[5]; first compound 8 µM,0.573
same,relative viability,[6]; first compound 0.08 µM,0.825
same,relative viability,[6]; first compound 0.253 µM,0.795
same,relative viability,[6]; first compound 0.8 µM,0.477
same,relative viability,[6]; first compound 2.53 µM,0.614
same,relative viability,[6]; first compound 8 µM,0.206
same,relative viability,[7]; first compound 0.08 µM,0.694
same,relative viability,[7]; first compound 0.253 µM,0.875
same,relative viability,[7]; first compound 0.8 µM,0.735
same,relative viability,[7]; first compound 2.53 µM,0.681
same,relative viability,[7]; first compound 8 µM,0.635
same,relative viability,[8]; first compound 0.08 µM,0.277
same,relative viability,[8]; first compound 0.253 µM,0.277
same,relative viability,[8]; first compound 0.8 µM,0.228
same,relative viability,[8]; first compound 2.53 µM,0.302
same,relative viability,[8]; first compound 8 µM,0.291
same,relative viability,[9]; first compound 0.08 µM,0.642
same,relative viability,[9]; first compound 0.253 µM,0.611
same,relative viability,[9]; first compound 0.8 µM,0.565
same,relative viability,[9]; first compound 2.53 µM,0.629
same,relative viability,[9]; first compound 8 µM,0.557
same,relative viability,[10]; first compound 0.08 µM,0.874
same,relative viability,[10]; first compound 0.253 µM,0.832
same,relative viability,[10]; first compound 0.8 µM,0.772
same,relative viability,[10]; first compound 2.53 µM,0.699
same,relative viability,[10]; first compound 8 µM,0.808
same,relative viability,[11]; first compound 0.08 µM,0.604
same,relative viability,[11]; first compound 0.253 µM,0.625
same,relative viability,[11]; first compound 2.53 µM,0.581
same,relative viability,[11]; first compound 8 µM,0.549
same,relative viability,[12]; first compound 0.08 µM,0.347
same,relative viability,[12]; first compound 0.253 µM,0.417
same,relative viability,[12]; first compound 0.8 µM,0.33
same,relative viability,[12]; first compound 2.53 µM,0.389
same,relative viability,[12]; first compound 8 µM,0.37
same,relative viability,[13]; first compound 0.08 µM,0.838
same,relative viability,[13]; first compound 0.253 µM,0.695
same,relative viability,[13]; first compound 0.8 µM,0.753
same,relative viability,[13]; first compound 2.53 µM,0.651
same,relative viability,[13]; first compound 8 µM,0.561
same,relative viability,[14]; first compound 0.08 µM,0.562
same,relative viability,[14]; first compound 0.253 µM,0.572
same,relative viability,[14]; first compound 0.8 µM,0.539
same,relative viability,[14]; first compound 2.53 µM,0.581
same,relative viability,[14]; first compound 8 µM,0.479
same,relative viability,[15]; first compound 0.08 µM,0.537
same,relative viability,[15]; first compound 0.253 µM,0.644
same,relative viability,[15]; first compound 0.8 µM,0.587
same,relative viability,[15]; first compound 2.53 µM,0.451
same,relative viability,[15]; first compound 8 µM,0.221
same,relative viability,[16]; first compound 0.08 µM,1.01
same,relative viability,[16]; first compound 0.253 µM,0.873
same,relative viability,[16]; first compound 0.8 µM,0.826
same,relative viability,[16]; first compound 2.53 µM,0.926
same,relative viability,[16]; first compound 8 µM,0.822
same,relative viability,[17]; first compound 0.08 µM,0.24
same,relative viability,[17]; first compound 0.253 µM,0.255
same,relative viability,[17]; first compound 0.8 µM,0.235
same,relative viability,[17]; first compound 2.53 µM,0.212
same,relative viability,[17]; first compound 8 µM,0.227
same,relative viability,[18]; first compound 0.08 µM,0.656
same,relative viability,[18]; first compound 0.253 µM,0.71
same,relative viability,[18]; first compound 0.8 µM,0.677
same,relative viability,[18]; first compound 2.53 µM,0.611
same,relative viability,[18]; first compound 8 µM,0.404
same,relative viability,[19]; first compound 0.08 µM,0.691
same,relative viability,[19]; first compound 0.253 µM,0.647
same,relative viability,[19]; first compound 0.8 µM,0.624
same,relative viability,[19]; first compound 2.53 µM,0.533
same,relative viability,[19]; first compound 8 µM,0.538
same,relative viability,[20]; first compound 0.08 µM,0.409
same,relative viability,[20]; first compound 0.253 µM,0.388
same,relative viability,[20]; first compound 0.8 µM,0.33
same,relative viability,[20]; first compound 2.53 µM,0.4
same,relative viability,[20]; first compound 8 µM,0.353
same,relative viability,[21]; first compound 0.08 µM,0.182
same,relative viability,[21]; first compound 0.253 µM,0.743
same,relative viability,[21]; first compound 0.8 µM,0.764
same,relative viability,[21]; first compound 2.53 µM,0.624
same,relative viability,[21]; first compound 8 µM,0.621
same,relative viability,[22]; first compound 0.08 µM,0.338
same,relative viability,[22]; first compound 0.253 µM,0.739
same,relative viability,[22]; first compound 0.8 µM,0.688
same,relative viability,[22]; first compound 2.53 µM,0.746
same,relative viability,[22]; first compound 8 µM,0.685
same,relative viability,[23]; first compound 0.08 µM,0.417
same,relative viability,[23]; first compound 0.253 µM,0.331
same,relative viability,[23]; first compound 0.8 µM,0.285
same,relative viability,[23]; first compound 2.53 µM,0.231
same,relative viability,[23]; first compound 8 µM,0.201

# Source: the supplement of paper PMC10307832
